Patent US12012374B2, “Agonists of ROR GAMMAt” (BRISTOL-MYERS SQUIBB COMPANY, priority 2019, dated 2024)

Target: T1, human RORgT (Homo sapiens, UniProt P51449)
T1 construct: expressed in transfected cells; host or cells: engineered Jurkat cells (Jurkat pEx/Gal/hRORγ CLBD/HYG pG5luc/blast)
T1 sequence (P51449 267-516): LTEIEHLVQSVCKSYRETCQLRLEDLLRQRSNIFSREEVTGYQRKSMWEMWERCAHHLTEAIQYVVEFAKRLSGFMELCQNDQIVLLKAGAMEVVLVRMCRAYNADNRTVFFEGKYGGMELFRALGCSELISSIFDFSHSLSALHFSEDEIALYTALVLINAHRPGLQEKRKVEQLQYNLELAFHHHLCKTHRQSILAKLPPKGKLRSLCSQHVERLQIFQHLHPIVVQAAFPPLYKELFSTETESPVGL
Test: RORgT Gal4 Luciferase Reporter Gene Assay
Type: cell-based
Settings: engineered Jurkat cells overexpressing RORgT (LBD or full length) fused with Gal4 Luc reporter; 18 hours incubation

| Compound | EC50 [nM] |
| --- | --- |
| O=C(Cc1ccncc1)N1CCC(c2ccc(OCc3c(Cl)cccc3Cl)cc2)(S(=O)(=O)c2ccccc2)C1 (centres unmarked) [Example 26, 1-[3-(benzenesulfonyl)-3-{4-[(2,6-dichlorophenyl)methoxy]phenyl}pyrrolidin-1-yl]-2-(pyridin-4-yl)ethan-1-one] | 77 |
| O=S(=O)(c1ccc(F)cc1)C1(c2ccc(OCc3ccccc3F)cc2)CCCC1 [Example 7, 1-[1-(4-fluorobenzenesulfonyl)cyclopentyl]-4-[(2-fluorophenyl)methoxy]benzene] | 723 |
| O=S(=O)(c1cccc(C(F)(F)F)c1)C1(c2ccc(OCc3ccccc3)cc2)CCCC1 [Example 8, 1-(benzyloxy)-4-{1-[3-(trifluoromethyl)benzenesulfonyl]cyclopentyl}benzene] | 382 |
| O=C(C1CCS(=O)(=O)C1)N1CCC(c2ccc(OCc3ccccc3)cc2)(S(=O)(=O)c2ccc(F)cc2)C1 (centres unmarked) [Example 19, 3-{3-[4-(benzyloxy)phenyl]-3-(4-fluorobenzenesulfonyl)pyrrolidine-1-carbonyl}-1λ^6-thiolane-1,1-dione] | 672 |
| O=S(=O)(c1ccccc1)C1(c2ccc(OCc3ccccc3F)cc2)CCCC1 [Example 13, 1-[1-(benzenesulfonyl)cyclopentyl]-4-[(2-fluorophenyl)methoxy]benzene] | 203 |
| O=S(=O)(c1cccc(Cl)c1)C1(c2ccc(OCc3ccccc3)cc2)CCCC1 [Example 5, 1-(benzyloxy)-4-[1-(3-chlorobenzenesulfonyl)cyclopentyl]benzene] | 240 |
| O=S(=O)(c1ccccc1)C1(c2ccc(OCC3CCCCC3)cc2)CCCC1 [Example 10, 1-[1-(benzenesulfonyl)cyclopentyl]-4-(cyclohexylmethoxy)benzene] | 328 |
| O=S(=O)(c1ccccc1)C1(c2ccc(OCCC3CC3)cc2)CCCC1 [Example 14, 1-[1-(benzenesulfonyl)cyclopentyl]-4-(2-cyclopropylethoxy)benzene] | 423 |

The next lines start with the values.

| EC50 [nM] | Compound |
| --- | --- |
| 32 | O=C(C1CCS(=O)(=O)CC1)N1CC[C@](c2ccc(OCc3c(Cl)cccc3Cl)cc2)(S(=O)(=O)c2ccccc2)C1 [Example 33, 4-[(3R)-3-(benzenesulfonyl)-3-{4-[(2,6-dichlorophenyl)methoxy]phenyl}pyrrolidine-1-carbonyl]-1λ^6-thiane-1,1-dione] |
| 47 | O=C(O)[C@H]1CC[C@H](C(=O)N2CC[C@](c3ccc(OCc4c(F)cccc4C(F)(F)F)cc3)(S(=O)(=O)c3ccc(F)cc3)C2)CC1 [Example 42, (1r,4r)-4-[(3R)-3-(4-{[2-fluoro-6-(trifluoromethyl)phenyl]methoxy}phenyl)-3-(4-fluorobenzenesulfonyl)pyrrolidine-1-carbonyl]cyclohexane-1-carboxylic acid] |
| 17 | O=C(C1CCS(=O)(=O)CC1)N1CC[C@](c2ccc(OCc3c(Cl)cccc3Cl)cc2)(S(=O)(=O)c2ccc(F)cc2)C1 [Example 36, 4-[(3R)-3-{4-[(2,6-dichlorophenyl)methoxy]phenyl}-3-(4-fluorobenzenesulfonyl)pyrrolidine-1-carbonyl]-1λ^6-thiane-1,1-dione] |
| 42 | O=C(N1CC[C@](c2ccc(OCc3c(Cl)cccc3C(F)(F)F)cc2)(S(=O)(=O)c2ccc(F)cc2)C1)C1(O)CCS(=O)(=O)CC1 [Example 46, 4-[(3R)-3-(4-{[2-chloro-6-(trifluoromethyl)phenyl]methoxy}phenyl)-3-(4-fluorobenzenesulfonyl)pyrrolidine-1-carbonyl]-4-hydroxy-1λ^6-thiane-1,1-dione] |
| 187 | O=C(C1CCS(=O)(=O)CC1)N1CCC(c2ccc(OCc3ccccc3Cl)cc2)(S(=O)(=O)c2ccccc2)C1 (centres unmarked) [Example 28, 4-[3-(benzenesulfonyl)-3-{4-[(2-chlorophenyl)methoxy]phenyl}pyrrolidine-1-carbonyl]-1λ^6-thiane-1,1-dione] |
| 84 | O=C(C1CCS(=O)(=O)CC1)N1CCC(c2ccc(OCc3ccccc3C(F)(F)F)cc2)(S(=O)(=O)c2ccccc2)C1 (centres unmarked) [Example 32, 4-[3-(benzenesulfonyl)-3-(4-{[2-(trifluoromethyl)phenyl]methoxy}phenyl)pyrrolidine-1-carbonyl]-1λ^6-thiane-1,1-dione] |
